Data reported in patent US20160221932A1, “Methods and Uses of Melatonin Ligands” (priority 2013, published 2016).
“Also recorded” adds a separate entry of the source.

Experiments:
[1] = test system: rats with L5-L6 spinal nerves ligation; test: L5-L6 spinal nerves ligature model, von Frey paw withdrawal threshold; type: in vivo, rat; conditions: for AUC of the antiallodynic effect across 8 h: mean±SEM, VEH 36.24±1.8 g
Experimental: (§1) Animals: Wistar rats (150-250 g, Charles-River Saint-Constant, Quebec, Canada) were used for the formalin test, hot plate test and L5-L6 spinal nerves ligature model. The animals were housed at constant room temperature and humidity under a 12 h light/dark cycle (lights on at 7 AM). Food and water were available ad libitum.
L5-L6 Spinal Nerves Ligature: Nerve injury results in abnormal pain perception, known as neuropathic pain, which is associated with hyperalgesia (high pain sensibility) and allodynia (pain perception induced by innocuous stimuli) (Campbell and Meyer, 2006). The rat model for neuropathic pain develop by Kim and Chung (Kim and Chung, 1992) was used in which the L5 and L6 spinal nerves were ligated and two weeks later allodynia was measured by paw stimulation with von Frey filaments. Briefly, animals were anesthetized with a mixture of ketamine/xylazine/acepromazine (i.p.). Following surgical preparation and exposure of the dorsal vertebral column, the left L5 and L6 spinal nerves were exposed and tightly ligated with 3.0 chromic catgut suture distal to the dorsal root ganglion. For sham-operated rats, the nerves were exposed but not ligated. The incisions were closed using 3.0 vicryl sutures, and the animals were allowed to recover for 13 days.
On day 14 after surgery, rats were singularly placed in a test chamber (clear plastic, wire mesh-bottomed cage) and allowed to acclimatize for 30-40 min. Von Frey filaments (Stoelting, Wood Dale, Ill., USA) were used to measure the 50% paw withdrawal threshold using the up and down method by (Chaplan et al., 1994). […] Lifting of the paw indicated a positive response and prompted the use of the next weaker filament, whereas absence of paw withdrawal after 5 s indicated a negative response and prompted the next filament of increasing weight. This paradigm continued for four more measurements after the initial change of the behavioral response, or until five consecutive negative (assigned a score of 15 g), or four consecutive positive (assigned a score of 0.25 g) responses. The resulting score were used to calculate the 50% response threshold by using the formula proposed by Dixon et al., 1980.
Allodynia was considered to be present when paw withdrawal thresholds were less than 4 g. (Chaplan et al., 1994). All nerve-ligated rats were verified to be allodynic, responding to a stimulus of less than 4 g. Rats without allodynia were excluded. Following the determination of the basal response, tactile allodynia was assessed at 0.5, 1, 2, 3, 4, 5, 6, 7 and 8 h post-administration for each treatment below described.
[…] […] Another group of rats received only the vehicle (VEH) consisting on a 70% DMSO/saline solution (0.9% NaCl). All treatments were administered in a single subcutaneous injection with a volume of 1 ml. Rats were tested at 0 h (basal withdrawal threshold) and 0.5, 1, 2, 3, 4, 5, 6, 7 and 8 h post-treatment administration.
(§2) Statistical Analysis: Data analysis was done using SigmaPlot 12 (Systat Software, Inc.). Two-way ANOVA for repeated measures was used to analyze data from L5-L6 models using treatments (between) and testing time (within) as factors. One-way ANOVA was used to analyze AUC in the L5-L6 spinal nerves ligation model. One-way ANOVA was used for formalin and hot-plate tests. Post-hoc analyses were performed using Bonferroni t-test comparisons or Student-Newman-Keuls (SNK) test. All data are expressed as mean±Standard Error of the Mean (SEM). P<0.05 was considered significant.

[2] = molecular target: T1, human-cloned MT2 receptors (Homo sapiens, UniProt P49286); test: cAMP assay in CHO cells expressing human-cloned MT2 (functional activity); type: cell-based; for MT2 Activity: key: A = ago0nist; PA = partial agonist; ANT = antagonits
T1 construct: expressed in transfected cells
T1 sequence (P49286 1-362): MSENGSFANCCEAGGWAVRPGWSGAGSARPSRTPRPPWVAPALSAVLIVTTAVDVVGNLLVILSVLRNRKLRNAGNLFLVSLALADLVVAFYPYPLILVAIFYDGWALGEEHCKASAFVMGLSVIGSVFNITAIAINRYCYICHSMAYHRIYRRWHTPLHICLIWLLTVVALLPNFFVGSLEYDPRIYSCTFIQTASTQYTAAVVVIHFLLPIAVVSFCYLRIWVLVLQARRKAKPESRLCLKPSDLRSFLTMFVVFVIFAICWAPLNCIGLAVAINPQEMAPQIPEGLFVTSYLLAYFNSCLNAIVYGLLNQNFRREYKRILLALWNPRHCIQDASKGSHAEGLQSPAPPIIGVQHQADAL

human MT2 receptor = molecular target: T2, human MT2 receptor (Homo sapiens, UniProt P49286); test: 2-[125I]iodomelatonin competition binding, human MT2 in CHO cells; conditions: human MT2 stably expressed in CHO cells; calculated from IC50 by Cheng and Prusoff; read-out: MT2 pKi (converted)
T2 construct: expressed in transfected cells
T2 sequence (P49286 1-362): T1 sequence (P49286 1-362)

human MT1 receptor = molecular target: T3, human MT1 receptor (Homo sapiens, UniProt P48039); test: 2-[125I]iodomelatonin competition binding, human MT1 in CHO cells; conditions: human MT1 stably expressed in CHO cells; calculated from IC50 by Cheng and Prusoff; read-out: MT1 pKi (converted)
T3 construct: expressed in transfected cells

human-cloned MT1 = molecular target: T4, human-cloned MT1 (Homo sapiens, UniProt P48039); test: impedance assay in CHO cells expressing human-cloned MT1 (functional activity); type: cell-based; for MT1 Activity: key: A = ago0nist; PA = partial agonist; ANT = antagonits
T4 construct: expressed in transfected cells

Wistar rats [3] = test: hot plate test; type: in vivo, rat
Experimental: Animals: Wistar rats (150-250 g, Charles-River Saint-Constant, Quebec, Canada) were used for the formalin test, hot plate test and L5-L6 spinal nerves ligature model. The animals were housed at constant room temperature and humidity under a 12 h light/dark cycle (lights on at 7 AM). Food and water were available ad libitum. Hot plate test: The hot-plate test was performed by using an electronically controlled hot-plate (Ugo Basile, Italy). The initial temperature was 38° C. A near linear increase in temperature (3° C. per min) was obtained by turning the heating adjustment to maximum. The temperature at which the fast hindpaw lick occurred was recorded as the nociceptive end-point. If no hindpaw lick was observed, the test was terminated at 52° C., and this cut-off value was used in the analysis. The plate was wiped with a wet cloth, and a fan located behind the plate allowed rapid cooling so that testing could be conducted every 7.5 min. Statistical Analysis: Data analysis was done using SigmaPlot 12 (Systat Software, Inc.). Two-way ANOVA for repeated measures was used to analyze data from L5-L6 models using treatments (between) and testing time (within) as factors. One-way ANOVA was used to analyze AUC in the L5-L6 spinal nerves ligation model. One-way ANOVA was used for formalin and hot-plate tests. Post-hoc analyses were performed using Bonferroni t-test comparisons or Student-Newman-Keuls (SNK) test. All data are expressed as mean±Standard Error of the Mean (SEM). P<0.05 was considered significant.

Wistar rats [4] = test: formalin test; type: in vivo, rat; conditions: 30 min prior to test
Experimental: as §1
Formalin Test: Antinociception was assessed using the formalin test (Dubuisson and Dennis, 1977). Rats were placed in open Plexiglas observation chambers for 60 min to allow them to acclimatize to their surroundings; then they were removed for formalin administration. Rats were gently restrained while the dorsal surface of the right hindpaw was injected with […] of 1% formalin (37% formaldehyde solution further diluted in saline solution) with a 30-gauge needle. The animals were returned to the chambers and nociceptive behavior was observed immediately after formalin injection. Mirrors were placed in each chamber to enable unhindered observation. Licking/biting behavior directed to the formalin injected paw was scored in 5 min intervals considering number and duration of the licking. Cumulative behavior for the total duration of the test as well as the first (0-10 min) and second phase (20-50 min) was then analyzed (Sufka et al., 1998).The initial acute phase (0-10 min) was followed by a relatively short quiescent period, which was then followed by a prolonged tonic response (15-60 min). The first phase is considered to be the result of direct stimulation of nociceptors, whereas inflammation process contributes to phase 2 activity (Hunskaar and Hole, 1987). At the end of the experiment the rats were sacrificed in a CO2 chamber.
as §2

SNI rats = test: spared nerve injury (SNI) model, dynamic plantar aesthesiometer; type: in vivo, rat; conditions: 150 mg/kg s.c.
Experimental: Spared nerve injury (SNI) of the sciatic nerve and measurement of allodynia with the dynamic plantar aesthesiometer. SNI was performed according to the method of Decosterd and Woolf (2000). Rats were anaesthetized with sodium pentobarbital (50 mg/kg i.p.). The sciatic nerve was exposed at mid-thigh level […] to the trifurcation and freed of connective tissue; the three peripheral branches (sural, common peroneal, and tibial nerves) of the sciatic nerve were exposed without stretching nerve structures. Both tibial and common peroneal nerves were ligated and transected together. The sham procedure consisted of the same surgery without ligation and transection of the nerves. Fourteen days after SNI, mechanical allodynia was measured using the dynamic plantar aesthesiometer (Ugo Basile, Varese, Italy). Each rat was placed and allowed to move freely in one of the two compartments of the enclosure positioned on a metal grid surface. A mechanical stimulus was delivered to the plantar surface of the rat's hind paw through the metal grid by a steel filament (Von Frey-type), connected to a movable touch-stimulator unit exerting an increasing force of 3 g per second. The force inducing paw withdrawal was recorded to the nearest 0.1 g. Nociceptive responses for mechanical sensitivity (mechanical withdrawal threshold) were measured in grams before and after vehicle or drug administration by an experimenter blind to the treatments. A single trial at each time point was performed on the ipsilateral hind paw to SNI surgery for each rat. Nociceptive responses for mechanical sensitivity were expressed as mean±SEM (g). Groups of 6-7 rats per treatment were used, with each animal being used for one treatment only.
as §2

[5] = 3 mg/kg s.c., listed as Ketoprofen
[6] = 3 mg/kg s.c., listed as ketoprofen

T4 sequence (P48039 whole entry): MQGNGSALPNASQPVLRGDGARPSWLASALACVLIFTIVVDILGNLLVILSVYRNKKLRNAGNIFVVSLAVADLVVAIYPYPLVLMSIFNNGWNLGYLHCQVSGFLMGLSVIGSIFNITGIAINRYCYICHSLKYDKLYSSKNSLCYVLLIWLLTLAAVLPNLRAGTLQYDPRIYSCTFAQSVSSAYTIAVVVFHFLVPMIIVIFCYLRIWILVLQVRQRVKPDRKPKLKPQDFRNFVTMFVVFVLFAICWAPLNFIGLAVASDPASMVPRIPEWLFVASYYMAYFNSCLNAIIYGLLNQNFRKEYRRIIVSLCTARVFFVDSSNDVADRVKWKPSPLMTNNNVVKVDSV
T3 sequence (P48039 whole entry): as above

In the case of `CCC(=O)NC1Cc2ccccc2C(c2ccccc2)C1` (centres unmarked) [4P-PDOT, reference compound], the “effect of pre-treatment with MT2 antagonist on antiallodynic effect of 5p” value ([1]; 4P-PDOT 10 mg/kg 10 min before 5p 20 mg/kg, 8 h of testing) is reported as “blocked the effects of 5p”.

`CC(=O)NCCN(c1ccccc1)c1cccc(OCCCCc2ccccc2)c1` [5i, N-{2-[(3-pheny/butoxyphenyl)-phenyl-amino]ethyl}acetamide] was tested, and the “activity for the MLT receptor subtype MT2 (in words)” value ([2]; CHO cells) was “antagonist activity”, the “MT2 Activity” value ([2]; intrinsic activity, human MT2 in CHO cells) was “ANT” and the Ki (human MT2 receptor) was 331 nM. For the same molecule, the Ki (human MT1 receptor) was 35.5 nM, the “activity for the MLT receptor subtype MT1 (in words)” value (human-cloned MT1; CHO cells) was “antagonist activity” and the “MT1 Activity” value (human-cloned MT1; intrinsic activity, human MT1 in CHO cells) was “ANT”.

In the case of `CC(=O)Nc1ccc(O)cc1` [ACE, Acetaminophen, reference compound], the “withdrawal temperature vs vehicle” value (Wistar rats [3]; 200 mg/kg s.c., 1 hour post treatment) is reported as “increased the withdrawal temperature”, the “withdrawal temperature vs vehicle” value (Wistar rats [3]; 200 mg/kg s.c., 1 hour post treatment, listed as acetaminophen) is reported as “increase of withdrawal temperature” and the “withdrawal temperature vs vehicle” value (Wistar rats [3]; 200 mg/kg s.c., 4 hours post treatment) is reported as “increased the withdrawal temperature”. For the same molecule, the “withdrawal temperature vs vehicle” value (Wistar rats [3]; 200 mg/kg s.c., 4 hours post treatment, listed as acetaminophen) was “increase the withdrawal temperature”.

`NCC1(CC(=O)O)CCCCC1` [GBP, gabapentin, reference compound] was tested, and the “maximum withdrawal threshold increase” value ([1]; 100 mg/kg s.c., at 4 h) was 420 % from basal and the “AUC of the antiallodynic effect across 8 h” value ([1]; 100 mg/kg s.c.) was 249.33 ± 22.1 g.

In the case of `CC(C(=O)O)c1cccc(C(=O)c2ccccc2)c1` (centres unmarked) [KET, Ketoprofen, reference compound], the “licking time vs vehicle, first phase” value (Wistar rats [4]; 3 mg/kg s.c.) is reported as “decreased the licking time”, the “licking time vs vehicle, second phase” value (Wistar rats [4]; 3 mg/kg s.c.) is reported as “decreased the licking time” and the “licking time vs vehicle, total time” value (Wistar rats [4]; 3 mg/kg s.c.) is reported as “decreased the licking time”. The “licking time vs vehicle, first phase” value (Wistar rats [4]; [5]) was “decrease in the licking time”, the “licking time vs vehicle, second phase” value (Wistar rats [4]; [5]) was “decrease of the licking time” and the “licking time vs vehicle, total time” value (Wistar rats [4]; [5]) was “decrease in the licking time”. For the same molecule, the “licking time vs vehicle, first phase” value (Wistar rats [4]; [6]) was “decrease in the licking time”, the “licking time vs vehicle, second phase” value (Wistar rats [4]; [6]) was “decrease of the licking time” and the “licking time vs vehicle, total time” value (Wistar rats [4]; [6]) was “decrease in the licking time”.

With `COc1ccc2[nH]cc(CCNC(C)=O)c2c1` [MLT, N-acetyl-5-methoxytryptamine, reference compound] the “maximum increase in withdrawal threshold” value ([1]; 150 mg/kg s.c., at 2 h post-treatment) was 335 % from baseline, the “AUC of the antiallodynic effect across 8 h” value ([1]; 150 mg/kg s.c.) was 131.75±7.9 and the “withdrawal temperature vs vehicle” value (Wistar rats [3]; 150 mg/kg s.c., 30 min post treatment) was “significant increase of the withdrawal temperature”. The “withdrawal temperature vs vehicle” value (Wistar rats [3]; 150 mg/kg s.c., 1 hour post treatment) was “increase of withdrawal temperature; also recorded: increased the withdrawal temperature”, the “withdrawal temperature vs vehicle” value (Wistar rats [3]; 150 mg/kg s.c., 4 hours post treatment) was “increase the withdrawal temperature” and the “effect on mechanical allodynia compared with GBP 100 mg/kg” value (SNI rats) was “lower magnitude than that produced by GBP”. For the same molecule, the “licking time vs vehicle, first phase” value (Wistar rats [4]; 150 mg/kg s.c.) was “decreased the licking time”, the “licking time vs vehicle, second phase” value (Wistar rats [4]; 150 mg/kg s.c.) was “decrease of the licking time; also recorded: decreased the licking time” and the “licking time vs vehicle, total time” value (Wistar rats [4]; 150 mg/kg s.c.) was “decrease in the licking time; also recorded: decreased the licking time”. For the same molecule, the “licking time vs vehicle, first phase” value (Wistar rats [4]; 150 mg/kg s.c., listed as Melatonin) was “decrease in the licking time”.
